According to patent publication US7019001B2, “Substituted benzothiazole amide derivatives” (Hoffman-La Roche Inc., priority 2001, dated 2006):
Like-named read-outs stand apart in the source and are kept apart here.

Columns and labels:
[1] = biological target: T1, human adenosine A2A receptor (Homo sapiens, UniProt P29274); assay: [3H]-SCH-58261 binding assay, human adenosine A2A receptor (CHO cell membranes, SPA)
T1 construct: expressed in transfected cells; host or cells: CHO cells, semliki forest virus expression system; washed membrane pellet used
T1 sequence (P29274 whole entry): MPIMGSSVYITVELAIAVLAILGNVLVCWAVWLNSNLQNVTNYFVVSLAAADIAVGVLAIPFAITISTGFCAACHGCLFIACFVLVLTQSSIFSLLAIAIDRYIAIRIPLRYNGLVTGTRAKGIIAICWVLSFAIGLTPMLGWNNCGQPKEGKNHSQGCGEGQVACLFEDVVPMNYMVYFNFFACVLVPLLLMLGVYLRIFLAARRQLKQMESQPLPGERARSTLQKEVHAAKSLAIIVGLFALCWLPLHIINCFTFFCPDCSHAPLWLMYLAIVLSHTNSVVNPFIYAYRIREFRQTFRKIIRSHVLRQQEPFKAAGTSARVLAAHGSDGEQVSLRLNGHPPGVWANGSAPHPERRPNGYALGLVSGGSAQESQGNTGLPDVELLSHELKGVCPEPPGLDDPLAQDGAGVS
Experimental: Human Adenosine A2A Receptor
The human adenosine A2A receptor was recombinantly expressed in chinese hamster ovary (CHO) cells using the semliki forest virus expression system. Cells were harvested, washed twice by centrifugation, homogenised and again washed by centrifugation. The final washed membrane pellet was suspended in a Tris (50 mM) buffer containing 120 mM NaCl, 5 mM KCl, 2 mM CaCl2 and 10 mM MgCl2 (pH 7.4) (buffer A). The [^3H]-SCH-58261 (Dionisotti et al., 1997, Br J Pharmacol 121, 353; 1 nM) binding assay was carried out in 96-well plates in the presence of 2.5 μg of membrane protein, 0.5 mg of Ysi-poly-1-lysine SPA beads and 0.1 U adenosine deaminase in a final volume of 200 μl of buffer A. Non-specific binding was defined using xanthine amine congener (XAC; 2 μM). Compounds were tested at 10 concentrations from 10 μM–0.3 nM. All assays were conducted in duplicate and repeated at least two times. Assay plates were incubated for 1 hour at room temperature before centrifugation and then bound ligand determined using a Packard Topcount scintillation counter. IC50 values, the concentration where 50% of the […] binding is displaced, were calculated using a non-linear curve fitting program and Ki values calculated using the Cheng-Prussoff equation.

[2] = displacement of [3H]-SCH-58261 (1 nM), recombinant receptor in CHO membranes, Ki by Cheng-Prussoff equation, read-out: hA2 (pKi) (converted)

`COc1ccc(N2CCOCC2)c2sc(NC(=O)N3CC4CCC3CC4)nc12` [Example 12, 2-Aza-bicyclo[2.2.2]octane-2-carboxylic acid (4-methoxy-7-morpholin-4-yl-benzothiazol-2-yl)-amide] showed a Ki [1, 2] of 2.51 nM.
Compound `O=C(Nc1nc2c(Cl)ccc(N3CCCCC3)c2s1)N1CCC(Cc2ccccc2)CC1` [Example 22, 4-Benzyl-piperidine-1-carboxylic acid (4-chloro-7-piperidin-1-yl-benzothiazol-2-yl)-amide] has a Ki [1, 2] of 15.8 nM.
In the case of `COc1ccc(N2CCOCC2)c2sc(NC(=O)N3CCC([C@@H](C)O)CC3)nc12` [Example 14, (R)-4-(1-Hydroxy-ethyl)-piperidine-1-carboxylic acid (4-methoxy-7-morpholin-4-yl-benzothiazol-2-yl)-amide], the Ki [1, 2] is reported as 7.94 nM.
With `COc1ccc(N2CCOCC2)c2sc(NC(=O)N(C)[C@H]3CC[C@@H](OC)CC3)nc12` [Example 25, (cis)-1-(4-Methoxy-cyclohexyl)-3-(4-methoxy-7-morpholin-4-yl-benzothiazol-2-yl)-1-methyl-urea] the Ki [1, 2] was 20 nM and the melting point was 198 to 200 °C.
In the case of `COc1ccc(N2CCOCC2)c2sc(NC(=O)N3CCC(CO)(Cc4ccccc4)CC3)nc12` [Example 8, 4-Benzyl-4-hydroxymethyl-piperidine-1-carboxylic acid (4-methoxy-7-morpholin-4-yl-benzothiazol-2-yl)-amide], the Ki [1, 2] is reported as 3.98 nM.
With `COc1ccc(N2CCOCC2)c2sc(NC(=O)N3CCC4(CCNC4=O)CC3)nc12` [Example 5, 1-Oxo-2,8-diaza-spiro[4.5]decane-8-carboxylic acid (4-methoxy-7-morpholin-4-yl-benzothiazol-2-yl)-amide] the Ki [1, 2] was 6.31 nM.
In the case of `COc1ccc(N2CCOCC2)c2sc(NC(=O)N3C[C@@H]4C[C@H]3CO4)nc12` [Example 1, (1S,4S)-2-Oxa-5-aza-bicyclo[2.2.1]heptane-5-carboxylic acid (4-methoxy-7-morpholin-4-yl-benzothiazol-2-yl)-amide], the Ki [1, 2] is reported as 3.16 nM.
With `COc1ccc(N2CCOCC2)c2sc(NC(=O)N(C)C3CCCCC3)nc12` [Example 9, 1-Cyclohexyl-3-(4-methoxy-7-morpholin-4-yl-benzothiazol-2-yl)-1-methyl-urea] the Ki [1, 2] was 12.6 nM.
For `COc1ccc(N2CCOCC2)c2sc(NC(=O)N(C)C3CCOCC3)nc12` [Example 34, 3-(4-Methoxy-7-morpholin-4-yl-benzothiazol-2-yl)-1-methyl-1-(tetrahydro-pyran-4-yl)-urea], the Ki [1, 2] was 15.8 nM and the melting point was 240 to 242 °C.
In the case of `COc1ccc(N2CCOCC2)c2sc(NC(=O)N(C)C3CCC(F)(F)CC3)nc12` [Example 24, 1-(4,4-Difluoro-cyclohexyl)-3-(4-methoxy-7-morpholin-4-yl-benzothiazol-2-yl)-1-methyl-urea], the Ki [1, 2] is reported as 10 nM and the melting point is reported as 189 to 192 °C.
Compound `COc1ccc(N2CCOCC2)c2sc(NC(=O)N3CCC4(CCCCC4)CC3)nc12` [Example 10, 3-Aza-spiro[5.5]undecane-3-carboxylic acid (4-methoxy-7-morpholin-4-yl-benzothiazol-2-yl)-amide] has a Ki [1, 2] of 10 nM.
With `COc1ccc(N2CCOCC2)c2sc(NC(=O)N3CCC4(CCCC4)CC3)nc12` [Example 11, 8-Aza-spiro[4.5]decane-8-carboxylic acid (4-methoxy-7-morpholin-4-yl-benzothiazol-2-yl)-amide] the Ki [1, 2] was 6.31 nM.
With `COc1ccc(N2CCOCC2)c2sc(NC(=O)N3CCCOCC3)nc12` [Example 28, Oxazepane-4-carboxylic acid (4-methoxy-7-morpholin-4-yl-benzothiazol-2-yl)-amide] the “hA2 (pKi)” value ([1]; displacement of [3H]-SCH-58261 (1 nM), recombinant receptor in CHO membranes, Ki by Cheng-Prussoff equation) was 7.9.
In the case of `COc1ccc(N2CCOCC2)c2sc(NC(=O)N(C)C3CCCCCC3)nc12` [Example 35, 1-Cycloheptyl-3-(4-methoxy-7-morpholin-4-yl-benzothiazol-2-yl)-1-methyl-urea], the Ki [1, 2] is reported as 12.6 nM and the melting point is reported as 198 to 200 °C.
In the case of `COc1ccc(N2CCOCC2)c2sc(NC(=O)N3CCC(CNS(C)(=O)=O)CC3)nc12` [Example 16, 4-(Methanesulfonylamino-methyl)-piperidine-1-carboxylic acid (4-methoxy-7-morpholin-4-yl-benzothiazol-2-yl)-amide], the Ki [1, 2] is reported as 15.8 nM.
`COc1ccc(N2CCOCC2)c2sc(NC(=O)N3CCC4(CCN(C)C4=O)CC3)nc12` [Example 4, 2-Methyl-1-oxo-2,8-diaza-spiro[4.5]decane-8-carboxylic acid (4-methoxy-7-morpholin-4-yl-benzothiazol-2-yl)-amide] gave a Ki [1, 2] of 6.31 nM.
Compound `COc1ccc(N2CCOCC2)c2sc(NC(=O)N(C)[C@H]3CC[C@@H](F)CC3)nc12` [Example 23, 1-(4cis-Fluoro-cyclohexyl)-3-(4-methoxy-7-morpholin-4-yl-benzothiazol-2-yl)-1-methyl-urea] has a Ki [1, 2] of 7.94 nM and a melting point of 201 to 204 °C.
With `COc1ccc(N2CCOCC2)c2sc(NC(=O)N(C)[C@H]3CC[C@H](OC)CC3)nc12` [Example 32, (trans)-1-(4-Methoxy-cyclohexyl)-3-(4-methoxy-7-morpholin-4-yl-benzothiazol-2-yl)-1-methyl-urea] the Ki [1, 2] was 25.1 nM and the melting point was 211 to 213 °C.
Work on `COc1ccc(N2CCOCC2)c2sc(NC(=O)N(C)[C@H]3CC[C@H](O)CC3)nc12` [Example 27, (trans)-1-(4-Hydroxy-cyclohexyl)-3-(4-methoxy-7-morpholin-4-yl-benzothiazol-2-yl)-1-methyl-urea] yielded a Ki [1, 2] of 12.6 nM and a melting point of 158 to 162 °C.
Compound `COc1ccc(N2CCCCC2)c2sc(NC(=O)N3CCC4(CCCO4)CC3)nc12` [Example 19, 1-Oxa-8-aza-spiro[4.5]decane-8-carboxylic acid (4-methoxy-7-piperidin-1yl-benzothiazol-2-yl)-amide] has a Ki [1, 2] of 3.98 nM.
In the case of `COc1ccc(N2CCOCC2)c2sc(NC(=O)N(C)C3CCCC3)nc12` [Example 36, 1-Cyclopentyl-3-(4-methoxy-7-morpholin-4-yl-benzothiazol-2-yl)-1-methyl-urea], the Ki [1, 2] is reported as 7.94 nM and the melting point is reported as 110 to 125 °C.
Work on `COc1ccc(N2CCOCC2)c2sc(NC(=O)N(C)[C@H]3CC[C@@H](O)CC3)nc12` [Example 29, (cis)-1-(4-Hydroxy-cyclohexyl)-3-(4-methoxy-7-morpholin-4-yl-benzothiazol-2-yl)-1-methyl-urea] yielded a Ki [1, 2] of 12.6 nM and a melting point of 169 to 171 °C.
In the case of `COc1ccc(N2CCOCC2)c2sc(NC(=O)N3CCC4(CCCO4)CC3)nc12` [Example 13, 1-Oxa-8-aza-spiro[4.5]decane-8-carboxylic acid (4-methoxy-7-morpholin-4-yl-benzothiazol-2-yl)-amide], the Ki [1, 2] is reported as 2.51 nM.
`O=C(Nc1nc2c(Cl)ccc(N3CCCCC3)c2s1)NC1CCCCC1` [Example 21, 1-(4-Chloro-7-piperidin-1-yl-benzothiazol-2-yl)-3-cyclohexyl-urea] gave a Ki [1, 2] of 2.51 nM.
Compound `COc1ccc(N2CCOCC2)c2sc(NC(=O)N3CC4CC[C@@](C)(C3)C4(C)C)nc12` [Example 26, (1R)-1,8,8-Trimethyl-3-aza-bicyclo[3.2.1]octane-3-carboxylic acid (4-methoxy-7-morpholin-4-yl-benzothiazol-2-yl)-amide] has a melting point of 185 to 189 °C.
In the case of `COc1ccc(N2CCOCC2)c2sc(NC(=O)NC3CCOCC3)nc12` [Example 2, 1-(4-Methoxy-7-morpholin-4-yl-benzothiazol-2-yl)-3-(tetrahydro-pyran-4-yl)-urea], the Ki [1, 2] is reported as 12.6 nM.
Compound `COc1ccc(N2CCOCC2)c2sc(NC(=O)N3C[C@@H]4CC[C@H]3C4)nc12` [Example 33, (1S,4R)-2-Aza-bicyclo[2.2.1]heptane-2-carboxylic acid (4-methoxy-7-morpholin-4-yl-benzothiazol-2-yl)-amide] has a Ki [1, 2] of 5.01 nM and a melting point of 149 °C.
For `COc1ccc(N2CCOCC2)c2sc(NC(=O)N3CC4CCC3CO4)nc12` (stereo not shown) [Example 30, 2-Oxa-5-aza-bicyclo[2.2.2]octane-5-carboxylic acid (4-methoxy-7-morpholin-4-yl-benzothiazol-2-yl)-amide], the Ki [1, 2] was 5.01 nM and the melting point was 164 to 170 °C.
Work on `COc1ccc(N2CCOCC2)c2sc(NC(=O)N3[C@@H]4CC[C@H]3C[C@@H](O)C4)nc12` [Example 3, 3-endo-Hydroxy-8-aza-bicyclo[3.2.1]octane-8-carboxylic acid (4-methoxy-7-morpholin-4-yl-benzothiazol-2-yl)-amide] yielded a Ki [1] of 7.94 nM.
With `Cc1ccc(CC2(O)CCN(C(=O)Nc3nc4c(Cl)ccc(N5CCCCC5)c4s3)CC2)cc1` [Example 20, 4-Hydroxy-4-(4-methyl-benzyl)-piperidine-1-carboxylic acid (4-chloro-7-piperidin-1-yl-benzothiazol-2-yl)-amide] the Ki [1, 2] was 3.16 nM.
With `COc1ccc(N2CCOCC2)c2sc(NC(=O)N3CCC([C@H](C)O)CC3)nc12` [Example 15, (S)-4-(1-Hydroxy-ethyl)-piperidine-1-carboxylic acid (4-methoxy-7-morpholin-4-yl-benzothiazol-2-yl)-amide] the Ki [1, 2] was 7.94 nM.
`COc1ccc(N2CCOCC2)c2sc(NC(=O)N3CCN(c4ccccc4)CC3)nc12` [Example 7, 4-Phenyl-piperazine-1-carboxylic acid (4-methoxy-7-morpholin-4-yl-benzothiazol-2-yl)-amide] gave a Ki [1, 2] of 7.94 nM.
